Like-named read-outs stand apart in the source and are kept apart here.
How the values were obtained:
[1] = tested on: primary human hepatocytes
HEK293 cells [2] = tested on: HEK293 cells
in vitro [3] = settings: human
HEK293 cells [4] = tested on: HEK293 cells; remark: listed apart in the source
in vitro [5] = settings: human; remark: listed apart in the source
in vitro [6] = settings: human; remark: listed apart in the source
[7] = tested on: Human primary hepatocytes; format: in vitro ADME
[8] = tested on: primary human hepatocytes; settings: for Metabolite Generation (marker metabolite of the probe): 10 uM
Experimental: Probe metabolism was tested as a fresh hepatocyte suspension culture, as a fresh agarose gelled BioActivator and after thawing a cryopreserved BioActivator. In all three testing conditions 50,000 viable hepatocytes were tested as following: (a) as a suspension in 500 μl of probe media, or, (b) in 50 μl of gelled agarose submerged in 450 μl of probe media. Cryopreserved BioActivators were thawed for testing after 48 hours at −80° C. Probe media was collected from the 3 test conditions at 30 minutes and 18 hours. Ice-cold acetonitrile containing 10 μM chlorzoxazone (internal extraction standard) was added at a 2:1 ratio to the collected media. The extraction mixture was analyzed by LC MS/MS.

[9] = HEK293 Cytotoxicity LC50, HEK293 + BioActivator, co-cultured 24 hours with BioActivators, Mean ± SD (N = 3), max 250 μM
[10] = HEK293 Cytotoxicity LC50, HEK 293 + cell free agarose beads, co-cultured 24 hours with cell free agarose beads, Mean ± SD (N = 3), max 250 μM
[11] = HEK293 Cytotoxicity LC50, HEK293 + BioActivator Pre-Conditioned Media, compounds pre-conditioned 24 h in BioActivator, then 24 h on HEK293, Mean ± SD (N = 3)
[12] = HEK293 Cytotoxicity LC50, HEK293 + BioActivator
[13] = HEK293 Cytotoxicity LC50, HEK 293 + cell free agarose beads
[14] = HEK293 Cytotoxicity LC50, HEK293 + BioActivator Pre-Conditioned Media
[15] = HEK293 Cytotoxicity LC50, HEK 293 + Cell Free Agarose Bead Pre-Conditioned Media

Nc1ccc2ccccc2c1 [2-Napthylamine, 2-Napthylamine]
CC50 [1]: > 250 µM
HEK293 cytotoxicity co-cultured with BioActivator (in words) (HEK293 cells [2]): No HEK293 cytotoxicity
HEK293 cytotoxicity co-cultured with cell free agarose bead (in words) (HEK293 cells [2]): No HEK293 cytotoxicity

COc1cccc2c1C(=O)c1c(O)c3c(c(O)c1C2=O)C[C@@](O)(C(=O)CO)C[C@@H]3O[C@H]1C[C@H](N)[C@H](O)[C@H](C)O1 [Doxorubicin]
Cytotoxicity in BioActivator hepatocytes at end of co-culture (in words) [1]: cytotoxicity was evident
Cytotoxicity in BioActivator hepatocytes at end of co-culture (in words) ([1]; human): LC50 responses
CC50 (in vitro [3]; [9]): 59 ± 5.1 µM
CC50 (in vitro [3]; [10]): 108 ± 9.3 µM
HEK293 cytotoxicity of compounds pre-conditioned in the BioActivator (in words) (HEK293 cells [4]): produce cytotoxicity
CC50 (in vitro [5]): 104 ± 4.6 µM
HEK293 cytotoxicity co-cultured with BioActivator (in words) (HEK293 cells [2]; human): measurable LC50 responses
HEK293 cytotoxicity co-cultured with cell free agarose bead (in words) (HEK293 cells [2]; human): measurable LC50
CC50 (in vitro [6]; [11]): 71 ± 2.7 µM

C=CC(N)=O [Acrylamide]
CC50 (in vitro [3]; [12]): 167 ± 7.9 µM
CC50 (in vitro [3]; [13]): > 250 µM
CC50 (in vitro [5]): > 250 µM
CC50 (in vitro [6]; [14]): > 250 µM
CC50 (in vitro [6]; [15]): > 250 µM

c1ccc2c(c1)cc1ccc3cccc4ccc2c1c34 [Benzo[a]pyrene]
CC50 (in vitro [3]; [9]): > 250 µM
CC50 (in vitro [3]; [10]): > 250 µM
CC50 (in vitro [5]): > 250 µM
HEK293 cytotoxicity co-cultured with BioActivator (in words) (HEK293 cells [2]; 24 h co-culture with BioActivator, up to 250 μM, compared to cell free agarose bead): No HEK293 cytotoxicity
HEK293 cytotoxicity co-cultured with cell free agarose bead (in words) (HEK293 cells [2]; 24 h co-culture with cell free agarose bead, up to 250 μM): No HEK293 cytotoxicity
CC50 (in vitro [6]; [11]): > 250 µM

O=C(O)Cc1ccccc1Nc1c(Cl)cccc1Cl [Diclofenac]
Metabolite generation in slotted pipette tip compared with control hepatocyte suspension cultures (in words) [7]: compare favorably
Effect of cryopreservation on hepatocyte clearance of probe (in words) [8]: minimal impact
Metabolite Generation (marker metabolite of the probe) ([8]; human, 30 min): 0.98 pmol/min/10^6 hepatocytes

O=C1OC(c2ccc(O)cc2)(c2ccc(O)cc2)c2ccccc21 [Phenolphthalein]
Metabolite generation in slotted pipette tip compared with control hepatocyte suspension cultures (in words) [7]: compare favorably
Effect of cryopreservation on hepatocyte clearance of probe (in words) [8]: minimal impact
Metabolite Generation (marker metabolite of the probe) ([8]; 30 min): 0.12 pmol/min/10^6 hepatocytes
Metabolite Generation (marker metabolite of the probe) ([8]; 18 h): 0.02 pmol/min/10^6 hepatocytes

CCOc1ccc(NC(C)=O)cc1 [Phenacetin]
Metabolite generation in slotted pipette tip compared with control hepatocyte suspension cultures (in words) [7]: compare favorably

O=P1(N(CCCl)CCCl)NCCCO1 (stereo not shown) [Cyclophosphamide]
CC50 (in vitro [3]; [12]): > 250 µM
CC50 (in vitro [3]; [13]): > 250 µM
CC50 (in vitro [5]): > 250 µM
HEK293 cytotoxicity co-cultured with BioActivator (in words) (HEK293 cells [2]; human): No HEK293 cytotoxicity
HEK293 cytotoxicity co-cultured with cell free agarose bead (in words) (HEK293 cells [2]; human): No HEK293 cytotoxicity
CC50 (in vitro [6]; [14]): > 250 µM
CC50 (in vitro [6]; [15]): > 250 µM

Aflatoxin B1
HEK293 cytotoxicity co-cultured with BioActivator (in words) (HEK293 cells [2]): No HEK293 cytotoxicity
HEK293 cytotoxicity co-cultured with cell free agarose bead (in words) (HEK293 cells [2]): No HEK293 cytotoxicity

O=c1ccc2ccccc2o1 [coumarin]
Metabolite generation in slotted pipette tip compared with control hepatocyte suspension cultures (in words) [7]: compare favorably

O=[N+]([O-])c1ccc(O)cc1 [4-Nitrophenol, 4-Nitrophenol]
CC50 (in vitro [3]; [12]): 101 µM
CC50 (in vitro [3]; [13]): > 250 µM
HEK293 cytotoxicity of compounds pre-conditioned in the BioActivator (in words) (HEK293 cells [4]): produce cytotoxicity
CC50 (in vitro [5]): > 250 µM
CC50 (in vitro [6]; [14]): 199 µM
CC50 (in vitro [6]; [15]): > 250 µM

Nc1cc2c3ccccc3ccc2c2ccccc12 [6-Aminochrysene]
CC50 (in vitro [3]; [9]): 84 ± 2 µM
CC50 (in vitro [3]; [10]): > 250 µM
HEK293 cytotoxicity of compounds pre-conditioned in the BioActivator (in words) (HEK293 cells [4]; compared to compounds pre-conditioned in cell free agarose beads): produce cytotoxicity
CC50 (in vitro [5]): > 250 µM
CC50 (in vitro [6]; [11]): 241 ± 9.8 µM

Reference: patent publication US11376580B2, “Methods and systems comprising modified pipettes for transferring and preserving biomaterial” (UNIVERSITY OF PITTSBURGH—OF THE COMMONWEALTH SYSTEM OF …, priority 2017, dated 2022)
